The test system of one series is MV-4-11 cells. Description: Antiproliferation assay MV-4-11 (Assay 7). The note with it: 72 h, CellTiter-Glo; read-out: Antiproli MV-4-11 IC50 median. Type of series: cell-based. The procedure:
(§1) Assessment of the Anti-Proliferative Effect of Compounds in Different Cell Lines
(§2) The impact of compounds on the proliferation of different cell lines was assessed using the CellTiter-Glo® Luminescent Cell Viability reagent from Promega (G7573).
(§3) In parallel, cells were plated in a reference (day 0) plate for time zero determination. Cells were incubated in a humidified incubator at 37° C. overnight.
(§4) Rim wells were excluded. The cells were incubated for 72 h hours in a humidified incubator at 37° C. The day 0 plate was measured by adding 30 μL/well of CTG solution (CellTiter-Glo® Luminescent Cell Viability reagent, Promega G7573) to time zero wells in the reference plate followed by a 10 minutes incubation and luminescence reading at 0.1 ms. using the PHERAstar FS microplate reader (BMG Labtech).
(§5) After 72 h incubation, the treated plates were measured in the same way as the day 0 plate mentioned above. The Bella DRC Master Sheet was used to calculate IC50s, with CI=day 0 values and C0=DMSO control values.
A general note: In ATP-based viability assays light output follows the ATP content of the culture.

The subject of another series is AMO-1 cells. Description: Antiproliferation assay AMO-1 (Assay 7). The series is classed as cell-based. The note with it: 72 h, CellTiter-Glo; read-out: Antiproli AMO-1 IC50 median. Put shortly: (§6)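 Cell proliferation was measured with CellTiter-Glo luminescence after 72 h compound exposure at 37 °C. A day 0 reference plate, read after overnight incubation, set the time-zero value. IC50s were calculated relative to day 0 (CI) and DMSO control (C0) values.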

In another series the test system is A2780 cells. Nature of the series: Antiproliferation assay A2780 (Assay 7). Type of series: cell-based. The note with it: 72 h, CellTiter-Glo; read-out: Antiproli A2780 IC50 median. The method, then: as §1, §2, §3, §4, §5
A further series concerns SNU-389 cells. Nature of the series: Antiproliferation assay SNU-389 (Assay 7). The series is classed as cell-based. The note with it: 72 h, CellTiter-Glo; read-out: Antiproli SNU-389 IC50. The procedure: as §1, §2, §3, §4, §5
Another series concerns REC-1 cells. Description: Antiproliferation assay REC-1 (Assay 7). The series is classed as cell-based. The note with it: 72 h, CellTiter-Glo; read-out: Antiproli REC-1 IC50. The method, then: as §1, §2, §3, §4, §5
The next series has as its system HMC-1-8 cells. Description: Antiproliferation assay HMC-1-8 (Assay 7). The series is classed as cell-based. The note with it: 72 h, CellTiter-Glo; read-out: Antiproli HMC-1-8 IC50 median. The procedure, abridged:
as §6

For a further series, the system named is SK-BR-3 cells. Nature of the series: Antiproliferation assay SK-BR-3 (Assay 7). The note with it: 72 h, CellTiter-Glo; read-out: Antiproli SK-BR-3 IC50 median. Type of series: cell-based. The method, then:
as §1, §2, §3, §4, §5

The next series deals with NCI-H23 cells. Description: Antiproliferation assay NCI-H23 (Assay 7). Type of series: cell-based. The note with it: 72 h, CellTiter-Glo; read-out: Antiproli NCI-H23 IC50. The method, then: as §1, §2, §3, §4, §5
A further series deals with A2058 cells. Description: Antiproliferation assay A2058 (Assay 7). Type of series: cell-based. The note with it: 72 h, CellTiter-Glo; read-out: Antiproli A2058 IC50. The procedure:
as §1, §2, §3, §4, §5

For the next series, the system named is SK-MEL-2 cells. Description: Antiproliferation assay SK-MEL-2 (Assay 7). The series is classed as cell-based. The note with it: 72 h, CellTiter-Glo; read-out: Antiproli SK-MEL-2 IC50 median. The procedure:
as §1, §2, §3, §4, §5

The target in another series is MBP-MCL1 (Homo sapiens (Human), UniProt Q07820, K194A/K197A/R201A). Description: X-ray crystallographic analysis of MBP-MCL1 in complex with inhibitor. The note with it: MBP-MCL1 co-crystal structure. Type of series: binding. The source says:
For clarity only the ligand non-hydrogen atoms are shown. Carbon atom C7 unambiguously features the (R)-configuration and the bound atropisomer as defined by the C4-C38 axis is the (Ra)-configuration.
The X-ray crystallographic analysis described in the MCL-1 structural analysis section infra, provides an atomic resolution view of the relative arrangement of the atoms of MBP-MCL1 in complex with example 47.

In the next series the target is MCL-1 (Homo sapiens (Human), UniProt Q07820, K194A/K197A/R201A). Nature of the series: Protein-protein interaction assay MCL-1/Noxa BH3 peptide (MCL-1 assay, TR-FRET). Type of series: binding. The note with it: read-out: MCL-1 Assay IC50 (median). The procedure, abridged: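 IC50 came from a 4-parameter regression of the 665/620 nm emission ratio, normalized to DMSO controls. The mix held 1 nM MBP-fused MCL-1 (residues 173-321), a biotin-Noxa BH3 tracer and compound in Tris buffer pH 7, incubated 10 min plus 1 h at 22° C., then overnight at 4° C.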
Sequence of MCL-1 (Q07820 whole entry, looked up, stated change not applied, the tested form may be a part): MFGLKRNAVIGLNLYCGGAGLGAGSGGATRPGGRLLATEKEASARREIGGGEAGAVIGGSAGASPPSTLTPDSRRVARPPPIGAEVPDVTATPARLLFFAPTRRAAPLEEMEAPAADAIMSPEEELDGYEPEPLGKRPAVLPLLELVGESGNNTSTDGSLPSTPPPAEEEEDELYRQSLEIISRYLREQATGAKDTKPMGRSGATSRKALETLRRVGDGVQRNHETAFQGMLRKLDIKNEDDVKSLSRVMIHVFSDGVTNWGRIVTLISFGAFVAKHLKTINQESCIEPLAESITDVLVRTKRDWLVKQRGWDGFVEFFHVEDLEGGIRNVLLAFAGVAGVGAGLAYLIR
Background: TR-FRET usually uses a lanthanide donor and a delayed reading to cut background.

The test system of another series is SUDHL5 cells. Description: Induction of cytotoxicity in SUDHL5 cells (Assay 6). The series is classed as cell-based. The note with it: 5 h, CellTiter-Glo; read-out: Cytotox SUDHL5 IC50 (median). Put shortly: (§7)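 Overnight seeding, 37 °C; 5 h compound exposure; CellTiter-Glo, 15 min RT shake; luminescence read. No-cell medium control.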
A further series relates to SUDHL10 cells. Nature of the series: Induction of cytotoxicity in SUDHL10 cells (Assay 6). The note with it: 5 h, CellTiter-Glo; read-out: Cytotox SUDHL10 IC50 (median). Type of series: cell-based. Put shortly:
as §7

pIC50: −log10 of the molar value.

Broadly, the pIC50 is the IC50 on a negative log10 scale, so that one unit is a factor of ten.

Sequence of MBP-MCL1 (Q07820 whole entry, looked up, stated change not applied): as the sequence (Q07820 whole entry, looked up, stated change not applied, the tested form may be a part) above

For `Cc1c2c(nn1C)C(CCN1CCOCC1)OCCCCn1c(C(=O)O)c(CCCOc3cccc4ccccc34)c3cccc-2c31` (centres unmarked) [Example 04], the negative-log IC50 (pIC50) was 5.76 in the series on MV-4-11 cells; 5.59 with AMO-1 cells; 4.84 with A2780 cells; 4.97 in the series on SNU-389 cells; 4.68 in the series with REC-1 cells.

On to `Cc1c2c(nn1C)C(CCN1CCOCC1)OCCCCn1c(C(=O)O)c(CCCOc3cccc4ccccc34)c3cccc-2c31` (centres unmarked) [Example 05], for which the pIC50 in the series on MV-4-11 cells was 5.76; in the series with AMO-1 cells it was 5.02; in the series on HMC-1-8 cells, 5.20; with SK-BR-3 cells, 5.14; with A2780 cells, 4.84; in the series with NCI-H23 cells, 5.16. Also, the figures for the pIC50 in the series on A2058 cells and with SK-MEL-2 cells were 4.89 and 4.94, respectively.

Regarding `CCc1c2c(nn1C)[C@@H](CCN1CCOCC1)OCCCCn1c(C(=O)O)c(CCCOc3cccc4cc(F)ccc34)c3ccc(Cl)c-2c31` [Example 47, (+)-4-chloro-3-ethyl-7-{3-[(6-fluoronaphthalen-1-yl)oxy]propyl}-2-methyl-(15R)-[2-(morpholin-4-yl)ethyl]-2,10,11,12,13,15-hexahydropyrazolo[4′,3′:9,10][1,6]oxazacycloundecino[8,7,6-hi]indole-8-carboxylic Acid], the “interaction with the target MCL1 shown by X-ray structure of the complex” value at MBP-MCL1 was “clear and direct interaction”. Also, the pIC50 was 9.43 on MCL-1, 8.09 with SUDHL5 cells and 8.10 in the series on SUDHL10 cells.

Source of the values: patent US11440923B2, “Substituted macrocyclic indole derivatives” (Bayer Aktiengesellschaft, priority 2017, dated 2022).
